Data taken from patent publication US20260297542A1, “HERBICIDE RESISTANT PLANTS” (SYNGENTA CROP PROTECTION AG, priority 2023, published 2026).
Where a chain is given by its changes, count along the chain named.

Assays:
Assay in all cases: E. coli hemG growth inhibition by herbicide, AtPPO1 variant
Assay type in all cases: cell-based
Details in all cases: read-out: percentage growth inhibition
[1] = target: T1, AtPPO1 D448L (Arabidopsis thaliana, UniProt P55826, D448L)
T1 construct: expressed in transfected cells; host or cells: E. coli BL21(DE3) hemG, pET24a plasmid
T1 sequence (P55826 35-537 D448L): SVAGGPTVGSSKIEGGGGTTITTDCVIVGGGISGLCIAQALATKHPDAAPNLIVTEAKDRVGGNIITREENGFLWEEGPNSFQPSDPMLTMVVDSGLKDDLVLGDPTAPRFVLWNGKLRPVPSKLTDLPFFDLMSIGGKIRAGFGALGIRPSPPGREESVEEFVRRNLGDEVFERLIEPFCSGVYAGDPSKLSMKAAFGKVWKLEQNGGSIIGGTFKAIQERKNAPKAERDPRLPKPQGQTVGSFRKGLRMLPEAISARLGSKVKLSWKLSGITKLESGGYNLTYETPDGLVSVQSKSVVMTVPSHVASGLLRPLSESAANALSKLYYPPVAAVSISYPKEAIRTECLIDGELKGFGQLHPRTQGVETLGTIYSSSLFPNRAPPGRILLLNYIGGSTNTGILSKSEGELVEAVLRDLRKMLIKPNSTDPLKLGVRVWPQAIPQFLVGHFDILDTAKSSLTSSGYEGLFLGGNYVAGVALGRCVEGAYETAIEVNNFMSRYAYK
In short: (§1)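 Variant plasmids were transformed into hemG-null BL21(DE3) and precultured 24 h with hematin. Washed cells were diluted 1:100 into Terrific broth containing 0.1 mM IPTG and herbicide (6.25 ppm 0 or E; 0.78 ppm B) or DMSO. After 24 h at 37° C, OD600 gave percent inhibition.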

[2] = target: T2, AtPPO1 G481D (Arabidopsis thaliana, UniProt P55826, G481D)
T2 construct: expressed in transfected cells; host or cells: E. coli BL21(DE3) hemG, pET24a plasmid
T2 sequence (P55826 35-537 G481D): T1 sequence (P55826 35-537 D448L) with L414D, G447D
In short: as §1

[3] = target: T3, AtPPO1 Q272I (Arabidopsis thaliana, UniProt P55826, Q272I)
T3 construct: expressed in transfected cells; host or cells: E. coli BL21(DE3) hemG (hemG replaced by CmR), pET24a plasmid
T3 sequence (P55826 35-537 Q272I): T1 sequence (P55826 35-537 D448L) with Q238I, L414D
In short: as §1

[4] = target: T4, AtPPO1 V447C (Arabidopsis thaliana, UniProt P55826, V447C)
T4 construct: expressed in transfected cells; host or cells: E. coli BL21(DE3) hemG (pET24a, T7 promoter)
T4 sequence (P55826 35-537 V447C): T1 sequence (P55826 35-537 D448L) with V413C, L414D
In short: as §1

| Compound | inhibition at 6.25 ppm [1] [%] | inhibition at 6.25 ppm [2] [%] | inhibition at 6.25 ppm [3] [%] | inhibition at 6.25 ppm [4] [%] | inhibition at 0.78 ppm [1] [%] | inhibition at 0.78 ppm [2] [%] | inhibition at 0.78 ppm [3] [%] | inhibition at 0.78 ppm [4] [%] |
| --- | --- | --- | --- | --- | --- | --- | --- | --- |
| CCOC(=O)[C@]1(C)CC(c2cc(-n3c(=O)n(C)c(=S)n(C)c3=O)c(F)cc2Cl)=NO1 [Herbicide D, ethyl (5S)-3-[2-chloro-5-(3,5-dimethyl-2,6-dioxo-4-thioxo-1,3,5-triazinan-1-yl)-4-fluoro-phenyl]-5-methyl-4H-isoxazole-5-carboxylate] | 38 | 20 | 29 | 32 |  |  |  |  |
| C#CCN1C(=O)C(F)(F)Oc2cc(F)c(-n3c(=O)n(C)c(=S)n(C)c3=O)cc21 [Herbicide B, trifludimoxazin] |  |  |  |  | 38 | 40 | 24 | 34 |
| CC(C)N(C)S(=O)(=O)NC(=O)c1cc(-n2c(=O)cc(C(F)(F)F)n(C)c2=O)c(F)cc1Cl [Herbicide E, saflufenacil] | 54 | 16 | 63 | 53 |  |  |  |  |
